This note sets out measurements from PMC6036132, “In Silico Workflow for the Discovery of Natural Products Activating the G Protein-Coupled Bile Acid Receptor 1” (Frontiers in Chemistry, 2018).

In the assay the target is T1, G protein-coupled bile acid receptor 1 (GPBAR1) (Homo sapiens, UniProt Q8TDU6).
T1 construct: full-length GPBAR1 expression plasmid (Origene), transiently transfected in HEK 293T cells with CRE-Luc and EGFP plasmids
T1 sequence (Q8TDU6 1-330): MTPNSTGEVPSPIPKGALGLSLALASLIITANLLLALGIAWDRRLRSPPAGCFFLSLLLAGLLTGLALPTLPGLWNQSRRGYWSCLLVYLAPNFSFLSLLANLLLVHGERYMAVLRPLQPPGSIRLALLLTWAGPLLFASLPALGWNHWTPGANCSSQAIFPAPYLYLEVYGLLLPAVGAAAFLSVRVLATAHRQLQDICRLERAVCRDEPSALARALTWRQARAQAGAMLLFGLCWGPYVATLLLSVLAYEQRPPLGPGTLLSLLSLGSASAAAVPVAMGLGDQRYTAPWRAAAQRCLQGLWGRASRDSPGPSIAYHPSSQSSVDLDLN
The assay can be described thus: CRE-luciferase reporter assay in transfected HEK […] cells, EGFP-normalised. The class given is cell-based. As to conditions: agonist; 18 h; relative to 10 μM LCA = 100%.

For the compound `C[C@H](CCC(=O)O)[C@H]1CC[C@H]2[C@@H]3[C@H](O)C[C@@H]4C[C@H](O)CC[C@]4(C)[C@H]3CC[C@]12C` [compound 3, chenodeoxycholic acid], the “Activity (at 5 μM)” value was determined as 66.69 ± 8.72%.
